Test results from ChEMBL document CHEMBL1795248, “N,N'-Dialkylaminoalkylcarbonyl (DAAC) prodrugs and aminoalkylcarbonyl (AAC) prodrugs of 4-hydroxyacetanilide and naltrexone with improved skin permeation properties” (Bioorg Med Chem Lett, 2011).

Test: Chemical stability of the compound assessed as half life in phosphate buffer at pH 6.0
Assay type: physicochemical

Q: For `CC(C)[C@H](N)C(=O)Oc1ccc2c3c1O[C@H]1C(=O)CC[C@@]4(O)[C@@H](C2)N(CC2CC2)CC[C@]314.O=C(O)C(F)(F)F`, which half-life is on record?
A: 0.53 h

Q: For `CC(=O)Nc1ccc(OC(=O)[C@H](C)N)cc1.Cl` [ACETAMINOPHEN ALANINATE HYDROCHLORIDE], which half-life is on record?
A: 0.539 h

Q: Which half-life does the source give for `CCN(CC)CCC(=O)Oc1ccc(NC(C)=O)cc1.Cl` here?
A: 1.32 h

Q: For `CC(=O)Nc1ccc(OC(=O)CN(C)C)cc1.Cl`, which half-life is on record?
A: 1.28 h

Q: With `CCN(CC)CC(=O)Oc1ccc(NC(C)=O)cc1.Cl` as the compound, how does the half-life read?
A: 1.76 h

Q: Which half-life does the source give for `CC(=O)Nc1ccc(OC(=O)[C@@H]2CCCN2)cc1.Cl` [ACETAMINOPHEN PROLINATE HYDROCHLORIDE] here?
A: 0.248 h

Q: With `CC(=O)Nc1ccc(OC(=O)CCN2CCCCC2)cc1.Cl` as the compound, how does the half-life read?
A: 1.33 h

Q: With `CC(=O)Nc1ccc(OC(=O)[C@@H](N)C(C)C)cc1.Cl` [ACETAMINOPHEN VALINATE HYDROCHLORIDE] as the compound, how does the half-life read?
A: 1.52 h

Q: With `CC(=O)Nc1ccc(OC(=O)CCN(C)C)cc1.Cl` as the compound, how does the half-life read?
A: 1.88 h
